ChEMBL document CHEMBL1926600, “Design, synthesis and biological evaluation of cycloalkyl arylpyrimidines (CAPYs) as HIV-1 NNRTIs” (Bioorg Med Chem, 2011)

Legend:
[1] = Selectivity index, ratio of CC50 for human MT4 cells to EC50 for HIV1 3B; type: toxicity, cell-based; conditions: read-out: Ratio CC50/EC50
[2] = Cytotoxicity against human MT4 cells measured by MTT assay; type: cell-based
[3] = test system: Human immunodeficiency virus 2; assay: Antiviral activity against HIV2 ROD infected in human MT4 cells assessed as reduction in virus-induced cytopathogenicity after 5 days by MTT assay; type: functional, organism-based; conditions: Human immunodeficiency virus 2, ISOLATE ROD, MT4, 120 h
[4] = test system: Human immunodeficiency virus 1; assay: Antiviral activity against wild type HIV1 3B infected in human MT4 cells assessed as reduction in virus-induced cytopathogenicity after 5 days by MTT assay; type: functional, organism-based; conditions: Human immunodeficiency virus 1, 3B, MT4, 120 h
[5] = test system: Human immunodeficiency virus 1; assay: Antiviral activity against HIV1 harboring reverse transcriptase K103N/Y181C mutant infected in human MT4 cells assessed as reduction in virus-induced cytopathogenicity after 5 days by MTT assay; type: functional, organism-based; conditions: Human immunodeficiency virus 1, MT4, 120 h

| SMILES | selectivity ratio [1] | CC50 [2] [µM] | EC50 [3] [µM] | EC50 [4] [µM] | EC50 [5] [µM] |
| --- | --- | --- | --- | --- | --- |
| Cc1cc(NC2CCCC2)nc(Nc2ccc(C#N)cc2)n1 | < 1 | 0.31 | > 0.31 | > 0.31 |  |
| N#Cc1ccc(Nc2nccc(NC3CC3)n2)cc1 | < 1 | 1.19 | > 1.19 | > 1.19 |  |
| N#Cc1ccc(Nc2nccc(NC3CCCC3)n2)cc1 | 6 | 9.13 | > 9.13 | 1.58 | > 9.13 |
| Cc1cc(OC2CCCCC2)nc(Nc2ccc(C#N)cc2)n1 | < 1 | 0.32 | > 0.32 | > 0.32 |  |
| Cc1cnc(Nc2ccc(C#N)cc2)nc1NC1CC1 | < 1 | 0.36 | > 0.36 | > 0.36 |  |
| Cc1cnc(Nc2ccc(C#N)cc2)nc1NC1CCCCC1 | < 1 | 1.3 | > 1.3 | > 1.3 |  |
| Cc1cc(OC2CCCC2)nc(Nc2ccc(C#N)cc2)n1 | < 1 | 1.05 | > 1.05 | > 1.05 |  |
| CC(C)Nc1cccnc1N1CCN(C(=O)c2cc3cc(NS(C)(=O)=O)ccc3[nH]2)CC1 [DELAVIRDINE] | > 274 | > 4.39 |  | 0.016 | > 4.39 |
| Cc1ccnc2c1NC(=O)c1cccnc1N2C1CC1 [NEVIRAPINE] |  | > 15 | > 15 |  | 3.49 |
| Cc1cnc(Nc2ccc(C#N)cc2)nc1SC1CCCCC1 | 79 | 33.4 | > 33.4 | 0.43 | > 33.4 |
| Cc1cc(NC2CCCCC2)nc(Nc2ccc(C#N)cc2)n1 | < 1 | 0.34 | > 0.34 | > 0.34 |  |
| Cc1cn([C@H]2C[C@H](N=[N+]=[N-])[C@@H](CO)O2)c(=O)[nH]c1=O [ZIDOVUDINE] | ≥ 6360 | ≥ 46.4 | 0.0075 | 0.0075 | 0.013 |
| O=C1Nc2ccc(Cl)cc2[C@@](C#CC2CC2)(C(F)(F)F)O1 [EFAVIRENZ] | > 1150 | > 6.34 |  | 0.0054 | 0.51 |
| N#Cc1ccc(Nc2nccc(NC3CCCCC3)n2)cc1 | 8 | 7.33 | > 7.33 | 0.96 | > 7.33 |
| Cc1cc(NC2CC2)nc(Nc2ccc(C#N)cc2)n1 | < 1 | 0.088 | > 0.088 | > 0.088 |  |
| N#Cc1ccc(Nc2nccc(SC3CCCCC3)n2)cc1 | > 7290 | > 403 | > 403 | 0.055 | > 403 |
| N#Cc1ccc(Nc2nccc(OC3CCCC3)n2)cc1 | ≥ 51 | ≥ 340 | 31.3 | 6.71 | > 340 |
| Cc1cnc(Nc2ccc(C#N)cc2)nc1OC1CCCCC1 | 5 | 31.2 | > 31.2 | 6.49 | > 31.2 |
| Cc1cnc(Nc2ccc(C#N)cc2)nc1OC1CCCC1 | < 1 | 9.99 | > 9.99 | > 9.99 |  |
| Cc1cnc(Nc2ccc(C#N)cc2)nc1NC1CCCC1 | < 1 | 0.17 | > 0.17 | > 0.17 |  |
| Cc1cc(SC2CCCCC2)nc(Nc2ccc(C#N)cc2)n1 | ≥ 2010 | ≥ 192 | > 192 | 0.096 | > 192 |
| Cc1cc(C#N)cc(C)c1Oc1nc(Nc2ccc(C#N)cc2)nc(N)c1Br [ETRAVIRINE] | 12900 | 27.8 | > 27.8 | 0.0022 | 0.034 |
| N#Cc1ccc(Nc2nccc(OC3CCCCC3)n2)cc1 | 276 | 322 | > 322 | 1.16 | > 322 |
